The assay has as its system bleomycin-induced pulmonary fibrosis model. Put plainly: Comparison with comparative drugs: bleomycin-induced model, hydroxyproline and TGF-β. Type of assay: in vivo, C57BL/6 mice. The following applies: 120 mg/kg/d intragastric, twice every day, 14 days, from two weeks after model; Day 15.
Take `CC(C)n1cnc2c(=O)[nH]cnc21` [Compound E-1]: the “Hydroxyproline in bronchoalveolar lavage fluids” value was 1.14 ± 0.16 µg/mg, the “Hydroxyproline in lung tissues” value came to 2.18 ± 0.32 µg/mg, the “TGF-β in bronchoalveolar lavage fluids” value turned out to be 6.51 ± 0.24 µg/L and the “TGF-β in lung tissues” value amounted to 63.95 ± 2.19 µg/L.

In the case of `CC(C)n1cnc2[nH]cnc2c1=O` [Compound E-2], the “Hydroxyproline in bronchoalveolar lavage fluids” value worked out at 1.16 ± 0.28 µg/mg, the “Hydroxyproline in lung tissues” value was 1.93 ± 0.24 µg/mg, the “TGF-β in bronchoalveolar lavage fluids” value turned out to be 6.21 ± 0.24 µg/L and the “TGF-β in lung tissues” value worked out at 66.56 ± 1.95 µg/L.

As for `CC(C)n1cnc2c(ncn2C(C)C)c1=O` [Compound E-3], the “Hydroxyproline in bronchoalveolar lavage fluids” value is 1.03 ± 0.29 µg/mg, the “Hydroxyproline in lung tissues” value amounted to 2.15 ± 0.23 µg/mg, the “TGF-β in bronchoalveolar lavage fluids” value stood at 6.35 ± 0.28 µg/L and the “TGF-β in lung tissues” value was 62.54 ± 1.28 µg/L.

As for `CC(C)n1cnc2c(=S)[nH]cnc21` [Compound E-4], the “Hydroxyproline in bronchoalveolar lavage fluids” value was found to be 1.14 ± 0.18 µg/mg, the “Hydroxyproline in lung tissues” value stood at 1.98 ± 0.44 µg/mg, the “TGF-β in bronchoalveolar lavage fluids” value was 6.84 ± 0.95 µg/L and the “TGF-β in lung tissues” value was determined as 63.58 ± 2.95 µg/L.

As to `CC(C)n1cnc2[nH]cnc2c1=S` [Compound E-5], the “Hydroxyproline in bronchoalveolar lavage fluids” value turned out to be 1.17 ± 0.16 µg/mg, the “Hydroxyproline in lung tissues” value was 2.15 ± 0.35 µg/mg, the “TGF-β in bronchoalveolar lavage fluids” value turned out to be 6.51 ± 0.86 µg/L and the “TGF-β in lung tissues” value came out at 65.82 ± 3.54 µg/L.

As to `CC(C)n1cnc2c(=O)n(C)cnc21` [Compound E-6], the “Hydroxyproline in bronchoalveolar lavage fluids” value is 1.18 ± 0.15 µg/mg, the “Hydroxyproline in lung tissues” value worked out at 2.35 ± 0.24 µg/mg, the “TGF-β in bronchoalveolar lavage fluids” value turned out to be 6.14 ± 0.85 µg/L and the “TGF-β in lung tissues” value amounted to 63.56 ± 6.54 µg/L.

With `CC(C)n1cnc2c(=N)[nH]cnc21` [Compound E-7], the “Hydroxyproline in bronchoalveolar lavage fluids” value stood at 1.15 ± 0.18 µg/mg, the “Hydroxyproline in lung tissues” value was found to be 1.99 ± 0.25 µg/mg, the “TGF-β in bronchoalveolar lavage fluids” value was found to be 6.38 ± 0.95 µg/L and the “TGF-β in lung tissues” value came out at 68.25 ± 2.58 µg/L.

For the molecule `CC(C)n1cnc2[nH]cnc2c1=N` [Compound E-8], the “Hydroxyproline in bronchoalveolar lavage fluids” value amounted to 1.06 ± 0.19 µg/mg, the “Hydroxyproline in lung tissues” value worked out at 2.03 ± 0.51 µg/mg, the “TGF-β in bronchoalveolar lavage fluids” value came to 6.51 ± 0.58 µg/L and the “TGF-β in lung tissues” value worked out at 68.54 ± 2.25 µg/L.

Turning to `CC(C)n1cnc2c(ncn2C(C)C)c1=S` [Hypoxanthine analogue D], the “Hydroxyproline in bronchoalveolar lavage fluids” value amounted to 1.94 ± 0.13 µg/mg, the “Hydroxyproline in lung tissues” value was 2.15 ± 0.35 µg/mg, the “TGF-β in bronchoalveolar lavage fluids” value came to 6.42 ± 1.02 µg/L and the “TGF-β in lung tissues” value came out at 93.36 ± 8.51 µg/L.

The values above are taken from patent US20250188082A1, “Use of Hypoxanthine Compound In Preparation of Drug For Treating Pulmonary Fibrosis” (Sichuan Yiasuo Pharmaceutical Technology Co., Ltd., priority 2022, published 2025).
